From US20260256728A1, “TREATMENT FOR ASYMPTOMATIC STARGARDT DISEASE PATIENTS” (priority 2024, published 2026)
“Also recorded” adds a separate entry of the source.

Key:
[1] = tested on: atrophic retinal lesions in Stargardt disease patients; assay: TEASE-1 growth rate of atrophic retinal lesions by fundus autofluorescence imaging; assay type: in vivo, human; set-up: relative slower growth rate of atrophic retinal lesions versus control / Percentage Slowing of Atrophic Retinal Lesion Growth Rate: concentration or dose not given beside the values
Method: The Tolerability and Effects of gildeuretinol acetate in Stargardt Disease (Clinical trial group 1, also known as TEASE-1) was a 24-month, multicenter, double-masked, placebo-controlled trial designed to evaluate the efficacy and safety of daily oral gildeuretinol acetate in slowing the growth of atrophic retinal lesions in Stargardt disease patients. The trial was conducted at multiple sites in the United States (NCT02402660).
Patients 12 years or older, clinically diagnosed with Stargardt disease, with at least one ABCA4 mutation, at least one eye presenting with well-demarcated areas of reduced fundus autofluorescence including retinal atrophic lesions, and with any visual acuity, were enrolled.
Patients were randomized to gildeuretinol acetate 14 mg capsules, gildeuretinol acetate 24 mg capsules, or placebo capsules, to be taken once daily for one year. After one year, 50% of randomly selected patients receiving placebo were crossed over in a 1:1 ratio to gildeuretinol acetate 14 mg capsules or gildeuretinol acetate 24 mg capsules for a second year.
Deidentified retinal images of patients not enrolled in the trial were included as a natural history cohort. This natural history cohort comprised patients diagnosed with Stargardt disease of any age, with two or more longitudinal fundus autofluorescence images taken at least four months apart over a maximum period of 2.5 years.
[…] retinal imaging comparing gildeuretinol acetate versus the untreated arm ([…]). Only well-delineated and homogeneous retinal atrophic lesions ≥0.2 mm^2 with a summed area ≥0.5 mm^2 were included in the primary analysis.
The primary endpoint analysis used a linear mixed-effect model (LMEM) with repeated measures, conferring a higher power to detect smaller effects. All observed data, including both eyes, were utilized. Treatment duration was computed as a continuous measure for each visit based on years since randomization. Adjustments for baseline retinal atrophy used the baseline atrophic retinal lesion size as a fixed effect in the LMEM. Additional fixed effects included treatment arm, treatment duration, and interaction between the treatment arm and treatment duration. Random effects included patient, eye, grader to adjust for correlation between eyes within a patient, graders' assessment of an eye, and observations of the same eye over time. A random effect slope term was added to the effect of treatment duration. Patients who crossed over to gildeuretinol acetate after year one were included in the untreated arm from baseline to year one, then in the gildeuretinol acetate arm from […] upon crossing over to gildeuretinol acetate. The full analysis set (FAS) comprised all randomized patients who received at least one dose of the study drug.
[…] All available data between 0 and 24 months was used to compute the slope of each segment. The primary efficacy endpoint was the slope of the second segment. No constraints were imposed on the Y-intercept. All growth rates were calculated on a per-year basis.
No imputations were made for missing data because the LMEM yields valid inferences under the assumption of a missing-at-random mechanism. The two-sided P-value of the primary efficacy endpoint was calculated using Kenward-Roger's method for handling denominator degrees of freedom and small samples. The goodness of fit of the linear mixed-effect model was provided as R-squared (R^2). Analyses were conducted in R (R Core Team, 2020). Prespecified, unadjusted sensitivity analyses of the primary efficacy endpoint included growth rates of untransformed areas of retinal atrophy and growth rates using a single-slope from baseline until the last available visit. Post-hoc unadjusted analyses were performed to evaluate the potential contribution of patient characteristics.

[2] = tested on: asymptomatic Stargardt disease patients; assay: TEASE-3 fundus autofluorescence (FAF) imaging; assay type: in vivo, human; details: after two to four years of treatment, three patients
Method: The tolerability and effects of ALK-001 (gildeuretinol acetate) in Stargardt Disease (Clinical trial group 3, also known as TEASE-3) study was an open-label, multicenter, case control study designed to evaluate the efficacy and safety of gildeuretinol acetate on the progression of Stargardt disease in asymptomatic individuals. The trial was conducted at multiple sites in the United States.
To assess the safety and efficacy of gildeuretinol acetate in preventing vision loss in asymptomatic individuals, gildeuretinol acetate 14 mg capsules were administered to individuals showing early signs of retinal damage while maintaining approximately 20/20 vision and no subjective loss of vision. […]
Disease progression was monitored by best-corrected visual acuity (BCVA) reported in number of Early Treatment Diabetic Retinopathy Study (ETDRS) letters, fundus autofluorescence (FAF) imaging, loss of photoreceptors (as measured by the ellipsoid zone band loss) by optical coherence tomography (OCT) and retinal sensitivity by microperimetry.

In the case of `[2H]C([2H])([2H])C(/C=C/C=C(C)/C=C/C1=C(C)CCCC1(C)C)=C\COC(C)=O` [gildeuretinol acetate], the “growth rate of atrophic retinal lesions (square root area)” value ([1]; 14 to 24 mg daily, slope 6 to 24 months, 34 patients) is reported as 0.19 mm/year, the “relative slower growth rate of atrophic retinal lesions versus control” value ([1]; P<0.001, R^2=0.9996) is reported as 21% and the “difference in growth rate of atrophic retinal lesions versus control” value ([1]; control 0.24 mm/year (placebo + natural history), 95% CI 0.03 to 0.07) is reported as 0.05 mm/year. For the same compound, the “prespecified primary efficacy endpoint (mean growth rate of atrophic retinal lesions vs placebo and natural history)” value ([1]; in vivo) was “met its prespecified primary efficacy endpoint”, the “effect on expansion of retinal atrophic lesions / retinal degeneration” value ([1]; symptomatic Stargardt disease patients, once daily up to 24 months) was “slowed the expansion of retinal atrophic lesions; also recorded: slows retinal degeneration” and the “disease progression / changes by FAF imaging” value [2] was “none of the three treated Stargardt disease patients exhibited changes by FAF; also recorded: no observable disease progression; also recorded: no visible disease progression by fundus autofluorescence imaging occurred”.
